Test results taken from US20240010684A1, “MASP INHIBITORY COMPOUNDS AND USES THEREOF” (BAYER AKTIENGESELLSCHAFT, priority 2020, published 2024).
Where a SMILES comes first, the peptide text is derived from it. Bridges are numbered along the chain shown (N, C = ends). [ ]: non-standard residue; d: D form. Oic = O=C(O)[C@@H]1C[C@@H]2CCCC[C@@H]2N1; tBuAla = CC(C)(C)C[C@H](N)C(=O)O; PEG4 = NCCOCCOCCOCCOCCC(=O)O; Pen = CC(C)(S)[C@H](N)C(=O)O; NMeC = CN[C@@H](CS)C(=O)O; Orn = NCCC[C@H](N)C(=O)O; Ahx = NCCCCCC(=O)O

Tests used:
human MASP2 = human MASP2 (Homo sapiens (Human), UniProt O00187); experiment: Biochemical human MASP2 assay (FRET substrate); conditions: Average IC50; recombinant human MASP2; read-out: human MASP2 IC50
Chain of human MASP2 (O00187 other isoform, or with tags, fused parts or gaps): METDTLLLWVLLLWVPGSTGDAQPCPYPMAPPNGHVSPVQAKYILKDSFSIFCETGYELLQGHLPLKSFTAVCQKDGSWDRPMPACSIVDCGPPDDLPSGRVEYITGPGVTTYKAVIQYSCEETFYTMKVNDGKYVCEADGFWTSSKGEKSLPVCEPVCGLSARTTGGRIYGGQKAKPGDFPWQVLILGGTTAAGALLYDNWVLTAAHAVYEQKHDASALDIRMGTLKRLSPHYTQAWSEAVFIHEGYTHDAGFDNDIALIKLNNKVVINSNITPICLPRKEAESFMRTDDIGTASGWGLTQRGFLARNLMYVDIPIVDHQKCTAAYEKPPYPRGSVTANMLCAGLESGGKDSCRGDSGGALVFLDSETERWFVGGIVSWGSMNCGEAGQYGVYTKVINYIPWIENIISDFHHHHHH
Text: The MASP1 or MASP2 expression vectors were transfected into the HEK293 (ATCC No. CRL-1573) cell line using Lipofectamine LTX® Reagent (Thermo-Fischer), as described by the manufacturer. The mature form of the recombinant human MASP1 and M[…] were secreted into the culture medium. The MASP1 and M[…] were purified from the conditioned media by affinity chromatography on Ni-NTA Superflow resin (Qiagen) as described by the manufacturer. 2.3 Biochemical Human MASP2 Assay […] The enzymatic reaction was initiated by addition of 25 μl of 60 μM solution of the FRET substrate DABCYL-[…]; […] The microtiter plate was incubated for 60-120 min at the temperature of 32 C. The increase of fluorescence intensity was measured in appropriate fluorescence plate reader (e.g. TECAN Ultra) using excitation wavelength of 340 nm and emission wavelength of 490 nm. IC50 values were calculated from percentage of inhibition of human MASP2 activity as a function of test compound concentration.

human MASP1 = human MASP1 (Homo sapiens (Human), UniProt P48740); experiment: Biochemical human MASP1 assay (FRET substrate); conditions: Average IC50; recombinant human MASP1; read-out: human MASP1 IC50
Chain of human MASP1 (P48740 other isoform, or with tags, fused parts or gaps): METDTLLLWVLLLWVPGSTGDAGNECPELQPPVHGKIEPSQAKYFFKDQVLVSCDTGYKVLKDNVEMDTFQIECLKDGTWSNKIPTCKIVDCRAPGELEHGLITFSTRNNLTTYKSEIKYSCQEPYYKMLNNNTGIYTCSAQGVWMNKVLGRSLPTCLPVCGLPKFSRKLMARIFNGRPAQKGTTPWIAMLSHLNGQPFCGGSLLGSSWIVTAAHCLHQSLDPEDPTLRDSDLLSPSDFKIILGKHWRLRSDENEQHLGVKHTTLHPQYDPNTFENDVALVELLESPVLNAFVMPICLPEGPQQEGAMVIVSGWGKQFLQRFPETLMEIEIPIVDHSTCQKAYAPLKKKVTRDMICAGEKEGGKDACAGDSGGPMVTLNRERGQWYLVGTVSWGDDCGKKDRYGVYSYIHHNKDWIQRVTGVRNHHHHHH
Text: A truncated cDNA sequence of human MASP1 encoding the fragment corresponding to the amino acids 297-699 with a C-terminal His Tag and N-terminal Ig-kappa secretion signal (SEQ ID No: 2) was subcloned into the mammalian expression vector pcDNA3.1 (Invitrogen).
The MASP1 or MASP2 expression vectors were transfected into the HEK293 (ATCC No. CRL-1573) cell line using Lipofectamine LTX® Reagent (Thermo-Fischer), as described by the manufacturer. The mature form of the recombinant human MASP1 and MASP2 proteases were secreted into the culture medium. The MASP1 and MASP2 proteins were purified from the conditioned media by affinity chromatography on Ni-NTA Superflow resin (Qiagen) as described by the manufacturer.
2.2 Biochemical Human MASP1 Assay
Recombinant human MASP1 enzyme produced in the HEK 293 cells was diluted in the reaction buffer (50 mM HEPES pH 8,0; 100 mM NaCl; 0,01% CHAPS; 0.5 mM Gluthathione) to the concentration of 20 nM and 25 μl was transferred into each single well of 384-well white microtiter plate (Greiner Bio One 781075). 1 μl of the inhibitor compound solution (dissolved in DMSO, at the corresponding concentration) or pure DMSO as a control was added to the same wells. The enzymatic reaction was initiated by addition of 25 μl of 20 μM solution of the FRET substrate ABZ-[…]-Lys (Dnp)-NH2; (ABZ-2-aminobenzoyl; DNP 2,4-dinitrophenyl; custom synthesis by Jerini Peptide Technologies, Berlin) in the reaction buffer. The microtiter plate was incubated for 60-120 min at the temperature of 32 C. The increase of fluorescence intensity was measured in appropriate fluorescence plate reader (e.g. TECAN Ultra) using excitation wavelength of 320 nm and emission wavelength of 420 nm. IC50 values were calculated from percentage of inhibition of human MASP1 activity as a function of test compound concentration.

CC[C@H](C)[C@@H]1NC(=O)[C@@H](C)NC(=O)CNC(=O)CCCCCNC(=O)CC[C@@H](C(N)=O)NC(=O)[C@@H]2CCCN2C(=O)[C@H]([C@@H](C)CC)NC(=O)[C@H]2NC(=O)[C@H]([C@@H](C)CC)NC(=O)[C@@H]3C[C@@H]4CCCC[C@@H]4N3C(=O)[C@@H]3CCCN3C(=O)[C@H](CC(C)C)NC(=O)[C@H](CO)NC(=O)[C@H](CCCNC(=N)N)NC(=O)[C@H](CO)NC(=O)[C@H](CSSC2(C)C)NC1=O [Example 84] ([Ahx]G[dA]ICSRSLP[Oic]I[Pen]IPE-NH2; disulfide 5-13; lactam N-16)
IC50 (human MASP2): 87 nM
IC50 (human MASP1): 15 nM

CC[C@H](C)[C@@H]1NC(=O)CNC(=O)CNC(=O)[C@H](CC(=O)O)NC(=O)[C@@H]2CCCN2C(=O)[C@H]([C@@H](C)CC)NC(=O)[C@@H]2CSSC[C@H](NC1=O)C(=O)N[C@@H](CO)C(=O)N[C@@H](CCCNC(=N)N)C(=O)N[C@@H](CO)C(=O)N[C@@H](CC(C)C)C(=O)N1CCC[C@H]1C(=O)N1CCC[C@H]1C(=O)N[C@@H]([C@@H](C)CC)C(=O)N2 [Example 15, [(6S,9S,12S,15S,18R,21S,30S,32aS,38S,41R,44S,46aS,51aS)-21,38,44-tri[(2S)-butan-2-yl]-12-(3-carbamimidamidopropyl)-9,15-bis(hydroxymethyl)-6-(2-methylpropyl)-5,8,11,14,17,20,23,26,29,32,37,40,43,46,51-pentadecaoxopentacontahydro-1H-18,41-(methanodithiomethano)tripyrrolo[1,2-a:1′,2′-d:1″,2″-p][1,4,7,10,13,16, 19,22,25,28,31,34,37,40,43]pentadecaazacyclopentatetracontin-30-yl]acetic acid] (cyclo(CIPDGGICSRSLPPI); disulfide 1-8)
IC50 (human MASP2): 300 nM
IC50 (human MASP1): 120 nM

CC[C@H](C)[C@@H]1NC(=O)[C@H](C)NC(=O)CNC(=O)[C@H](C)NC(=O)C[C@@H](C(N)=O)NC(=O)[C@@H]2CCCN2C(=O)[C@H]([C@@H](C)CC)NC(=O)[C@H]2NC(=O)[C@H]([C@@H](C)CC)NC(=O)[C@@H]3C[C@@H]4CCCC[C@@H]4N3C(=O)[C@@H]3CCCN3C(=O)[C@H](CC(C)C)NC(=O)[C@H](CO)NC(=O)[C@H](CCCNC(=N)N)NC(=O)[C@H](CO)NC(=O)[C@H](CSSC2(C)C)NC1=O [Example 41] (AGAICSRSLP[Oic]I[Pen]IPD-NH2; disulfide 5-13; lactam N-16)
IC50 (human MASP2): 190 nM
IC50 (human MASP1): 5.9 nM

CC[C@H](C)[C@@H]1NC(=O)CNC(=O)[C@@H](N)CCCCNC(=O)[C@H](CC(=O)O)NC(=O)[C@@H]2CCCN2C(=O)[C@H]([C@@H](C)CC)NC(=O)[C@@H]2CSSC[C@H](NC1=O)C(=O)N[C@@H](CO)C(=O)N[C@@H](CCCNC(=N)N)C(=O)N[C@@H](CO)C(=O)N[C@@H](CC(C)C)C(=O)N1CCC[C@H]1C(=O)N1CCC[C@H]1C(=O)N[C@@H]([C@@H](C)CC)C(=O)N2 [Example 22] (H-KGICSRSLPPICIPD; lactam 1-C; disulfide 4-12)
IC50 (human MASP2): 91 nM
IC50 (human MASP1): 190 nM

CC[C@H](C)[C@@H]1NC(=O)CNC(=O)CCCCCNC(=O)CC[C@@H](C(N)=O)NC(=O)[C@@H]2CCCN2C(=O)[C@H]([C@@H](C)CC)NC(=O)[C@H]2NC(=O)[C@H]([C@@H](C)CC)NC(=O)[C@@H]3C[C@@H]4CCCC[C@@H]4N3C(=O)[C@@H]3CCCN3C(=O)[C@H](CC(C)C)NC(=O)[C@H](CO)NC(=O)[C@H](CCCNC(=N)N)NC(=O)[C@H](CO)NC(=O)[C@H](CSSC2(C)C)NC1=O [Example 83] ([Ahx]GICSRSLP[Oic]I[Pen]IPE-NH2; disulfide 4-12; lactam N-15)
IC50 (human MASP2): 91 nM
IC50 (human MASP1): 18 nM

CC[C@H](C)[C@@H]1NC(=O)CNC(=O)CCOCCOCCOCCOCCNC(=O)[C@H](CC(=O)O)NC(=O)[C@@H]2CCCN2C(=O)[C@H]([C@@H](C)CC)NC(=O)[C@@H]2CSSC[C@H](NC1=O)C(=O)N[C@@H](CO)C(=O)N[C@@H](CCCNC(=N)N)C(=O)N[C@@H](CO)C(=O)N[C@@H](CC(C)C)C(=O)N1CCC[C@H]1C(=O)N1CCC[C@H]1C(=O)N[C@@H]([C@@H](C)CC)C(=O)N2 [Example 14] (cyclo(CIPD[PEG4]GICSRSLPPI); disulfide 1-8)
IC50 (human MASP2): 240 nM
IC50 (human MASP1): 170 nM

CC[C@H](C)[C@@H]1NC(=O)CNC(=O)CCCCCNC(=O)C[C@@H](C(N)=O)NC(=O)[C@@H]2CCCN2C(=O)[C@H]([C@@H](C)CC)NC(=O)[C@H]2NC(=O)[C@H]([C@@H](C)CC)NC(=O)[C@@H]3C[C@@H]4CCCC[C@@H]4N3C(=O)[C@@H]3CCCN3C(=O)[C@H](CC(C)C)NC(=O)[C@H](CO)NC(=O)[C@H](CCCNC(=N)N)NC(=O)[C@H](CO)NC(=O)[C@H](CSSC2(C)C)NC1=O [Example 49] ([Ahx]GICSRSLP[Oic]I[Pen]IPD-NH2; disulfide 4-12; lactam N-15)
IC50 (human MASP2): 140 nM
IC50 (human MASP1): 19 nM

CC[C@H](C)[C@@H]1NC(=O)CCCCCNC(=O)[C@H]([C@@H](C)CC)NC(=O)[C@@H]2CSSC[C@H](NC1=O)C(=O)N[C@@H](CO)C(=O)N[C@@H](CCCNC(=N)N)C(=O)N[C@@H](CO)C(=O)N[C@@H](CC(C)C)C(=O)N1CCC[C@H]1C(=O)N1[C@@H](C[C@@H]3CCCC[C@@H]31)C(=O)N[C@@H]([C@@H](C)CC)C(=O)N2 [Example 95, N-{3-[(6S,9S,12S,15S,18R,21S,31S,34R,37S,39aS,40aS,44aS,46aS)-21,31,37-tri[(2S)-butan-2-yl]-9,15-bis(hydroxymethyl)-6-(2-methylpropyl)-5,8,11,14,17,20,23,30,33,36,39,46-dodecaoxohexatetracontahydro-1H,5H-18,34-(methanodithiomethano)pyrrolo[2′,1′:15,16][1,4,7,10,13,16,19,22,25,28,31,34]dodecaazacyclotetracontino[13,12-a]indol-12-yl]propyl}guanidine] (cyclo([Ahx]ICSRSLP[Oic]ICI); disulfide 3-11)
IC50 (human MASP2): 110 nM
IC50 (human MASP1): 100 nM

CC[C@H](C)[C@@H]1NC(=O)[C@H](C)NC(=O)CNC(=O)[C@H](C)NC(=O)[C@H](CC(=O)O)NC(=O)[C@@H]2CCCN2C(=O)[C@H]([C@@H](C)CC)NC(=O)[C@H]2NC(=O)[C@H]([C@@H](C)CC)NC(=O)[C@@H]3CCCN3C(=O)[C@@H]3CCCN3C(=O)[C@H](CC(C)(C)C)NC(=O)[C@H](CO)NC(=O)[C@H](CCCNC(=N)N)NC(=O)[C@H](CO)NC(=O)[C@H](CSSC2(C)C)NC1=O [Example 26] (cyclo(AGAICSRS[tBuAla]PPI[Pen]IPD); disulfide 5-13)
IC50 (human MASP2): 170 nM
IC50 (human MASP1): 12 nM

CC[C@H](C)[C@@H]1NC(=O)CNC(=O)[C@H](CCCN)NC(=O)[C@H]([C@@H](C)CC)NC(=O)[C@H]2NC(=O)[C@H]([C@@H](C)CC)NC(=O)[C@@H]3CCCN3C(=O)[C@@H]3CCCN3C(=O)[C@H](CC(C)(C)C)NC(=O)[C@H](CO)NC(=O)[C@H](CCCNC(=N)N)NC(=O)[C@H](CO)NC(=O)[C@H](CSSC2(C)C)NC1=O [Example 65, N-{3-[(5aS,11S,14S,17S,20S,23R,26S,32S,35S,38R,41S,43aS)-32-(3-aminopropyl)-26,35,41-tri[(2S)-butan-2-yl]-11-(2,2-dimethylpropyl)-14,20-bis(hydroxymethyl)-44,44-dimethyl-5,10,13,16,19,22,25,28,31,34,37,40,43-tridecaoxodotetracontahydro-5H-23,38-(methanodithiomethano)dipyrrolo[1,2-a:1′,2′-d][1,4,7,10,13,16,19,22,25,28,31,34,37]tridecaazacyclononatriacontin-17-yl]propyl}guanidine] (cyclo(CSRS[tBuAla]PPI[Pen]I[Orn]GI); disulfide 1-9)
IC50 (human MASP2): 540 nM
IC50 (human MASP1): 49 nM

CC[C@H](C)[C@@H]1NC(=O)CNC(=O)CNC(=O)[C@H](C)NC(=O)[C@@H](CC(=O)O)NC(=O)[C@@H]2CCCN2C(=O)[C@H]([C@@H](C)CC)NC(=O)[C@@H]2CSSC[C@H](NC1=O)C(=O)N[C@@H](CO)C(=O)N[C@@H](CCCNC(=N)N)C(=O)N[C@@H](CO)C(=O)N[C@@H](CC(C)(C)C)C(=O)N1CCC[C@H]1C(=O)N1CCC[C@H]1C(=O)N[C@@H]([C@@H](C)CC)C(=O)N2C [Example 47] (cyclo(AGGICSRS[tBuAla]PPI[NMeC]IP[dD]); disulfide 5-13)
IC50 (human MASP2): 66 nM
IC50 (human MASP1): 8.2 nM
